Measurements published in patent US20100216761A1, “NOVEL AZETIDINONES USEFUL AS INHIBITORS OF ELASTASE” (priority 2007, published 2010).

Experiments:
[1] = target: T1, Human Leukocyte Elastase (HLE) (Homo sapiens, UniProt P08246); assay: HLE time-dependent inactivation assay, PMN cell lysate source of HLE; assay type: biochemical; conditions: 3 nM, inhibitor 26.5 nM, substrate 1 mM
T1 construct: The PMN lysates were prepared by isolating human neutrophils from whole blood; from tissue; host or cells: human neutrophils (PMN) isolated from whole blood, lysed by sonication in PBS
T1 sequence (P08246 30-267): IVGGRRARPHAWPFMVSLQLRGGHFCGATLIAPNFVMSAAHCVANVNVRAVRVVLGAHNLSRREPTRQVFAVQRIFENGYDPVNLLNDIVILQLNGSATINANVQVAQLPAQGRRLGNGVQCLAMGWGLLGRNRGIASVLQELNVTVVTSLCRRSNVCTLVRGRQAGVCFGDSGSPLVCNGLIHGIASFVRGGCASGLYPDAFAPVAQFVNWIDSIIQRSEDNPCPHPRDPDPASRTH
Method: As exemplified in Table 1, the Examples 1-6 of this application were determined to be potent, mechanism-based inactivators of Human Leukocyte Elastase (HLE) in two different in vitro time-dependent incubation assays. The two assays are described at the end of this Biological Data Section in Note 1. See the literature references in Note 2 for a discussion of the mechanism for this type of beta-lactam inactivation of HLE. Two sources of enzyme were used; either purified elastase or crude extracts of human polymorphonuclear leukocytes (PMN) containing elastase activity. […] For the compound of Example 1, the results were 638,000 M^−1 sec^−1 (average of n=3) and 809,000 M^−1 sec^−1 (n=4), respectively, and for Example 3, 804,000 M^−1 sec^−1 (average of n=4) and 952,000 M^−1 sec^−1 (n=5). […] Note that in this assay, head-to-head comparisons are particularly valuable.
Note 1: Enzyme Assays for the Inhibition of Human Polymorphonuclear Leukocyte Elastase Via Hydrolysis of N-Methyoxysuccinyl-alanyl-alanyl-prolylalanine-p-nitroanilide Reagent.
Prepare substrate by first dissolving in DMSO to 30 mg/ml (50 mM). Further dilute the substrate to 10 mM and add 25 μl to a final volume of 250 μl for a final concentration of 1 mM in the assay.
Prepare the enzyme in TES Buffer (0.045M TES (N-tris[hydroxymethyl]methyl-2-mino-ethanesulfonic acid), 0.45 M NaCl, pH 7.5.). Two sources of enzyme were used; either crude extracts of human polymorphonuclear leukocytes (PMN) containing elastase activity or purified elastase. The PMN lysates were prepared by isolating human neutrophils from whole blood after dextran sedimentation, ficoll density separation and red blood cell lysis. The neutrophils were lysed in PBS with sonciation and the concentration of active enzyme was determined by utilizing a standard curve of purified enzyme. For the purified elastase, the enzyme was resuspended at 10 mg/ml (˜340 μM) in 0.02M NaOAc, 50% glycerol. For both the PMN lysate and purified enzyme, a further dilution of enzyme was made to 30 nM and 25 μl was added to a final volume of 250 μl. The final concentration of enzyme in the assay was 3 nM.
The inhibitors to be tested were dissolved in DMSO at 10 mM. Directly before use, the inhibitors were further diluted into TES Buffer to 265 nM and […] was added to a final volume of 250 μl. The final concentration of inhibitor in the assay was 26.5 nM.
In a 96-well plate (flat bottom, polystyrene) 175 μl TES Buffer, 25 μl substrate, 25 μl inhibitor and 25 μl enzyme were added. After thoroughly mixing, the plate was then read in a spectrophotometer at 410 nm for 30 minutes counting every 10 seconds. Results were expressed as Kinact/Ki which is the second order rate constant in per mole per second for inactivation of the enzyme.

[2] = Liver microsome stability in 4 species: human; assay type: in vitro ADME; conditions: substrate 0.5 uM, microsome 0.25 mg/mL
Method: (§1) In a separate experiment as exemplified in Table 3, the stability of the current Example 1 and the comparator Compound #290 in incubations with microsome preparations from 4 different species were also determined (Note 5).
(§2) X. S. Tong, et. al., J. of Chromatography, 2006, 833, 165.

[3] = Liver microsome stability in 4 species: dog; assay type: in vitro ADME; conditions: substrate 0.5 uM, microsome 0.25 mg/mL
Method: as §1, §2

[4] = Liver microsome stability in 4 species: monkey; assay type: in vitro ADME; conditions: substrate 0.5 uM, microsome 0.25 mg/mL
Method: as §1, §2

[5] = target: T2, CYP2C9 (Homo sapiens, UniProt P11712); assay: CYP-P450 reversible inhibition, 2C9; assay type: in vitro ADME; conditions: probe fluorogenic probe (not named); human liver microsomes or recombinant P450 microsomes; fluorescent probe
T2 construct: host or cells: human liver microsomes or recombinant P450 microsomes
T2 sequence (P11712 whole entry): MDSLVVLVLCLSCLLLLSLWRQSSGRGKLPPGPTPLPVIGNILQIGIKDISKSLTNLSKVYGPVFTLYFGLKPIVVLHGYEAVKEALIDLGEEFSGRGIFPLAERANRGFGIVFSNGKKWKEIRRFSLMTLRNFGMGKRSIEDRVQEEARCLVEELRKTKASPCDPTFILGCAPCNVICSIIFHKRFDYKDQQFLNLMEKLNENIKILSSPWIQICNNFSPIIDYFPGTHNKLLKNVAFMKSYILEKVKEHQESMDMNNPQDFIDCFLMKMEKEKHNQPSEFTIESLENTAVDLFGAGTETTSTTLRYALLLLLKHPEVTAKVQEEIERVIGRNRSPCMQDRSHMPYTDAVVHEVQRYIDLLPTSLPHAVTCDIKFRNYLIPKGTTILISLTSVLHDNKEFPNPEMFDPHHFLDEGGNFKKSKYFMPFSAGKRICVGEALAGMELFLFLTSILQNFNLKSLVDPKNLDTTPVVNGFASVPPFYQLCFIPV
Method: (§3) This assay measured the reversible inhibition of the test compounds against three cytochrome P450 isozymes (CYP-P450 3A4, 2C9 and 2D6) in an automated screening formate. […] Cumene hydroperoxide, NADPH or NADPH regenerating systems can be used as electron donors for the P450 catalytic cycle. Control incubations containing no inhibitor or no fluorescent probe were performed to evaluate the 100% and 0% activities, respectively. The activity of P450 enzyme was evaluated in the presence of 0.137, 0.273, 0.547, 1.094, 2.188, 4.375, 8.750, 17.5, 35.0 and 70.0 μM concentrations of the test compounds. Inhibition curves were generated and IC50 values were calculated for each tested compound using standard techniques.

[6] = target: T3, CYP2D6 (Homo sapiens, UniProt P10635); assay: CYP-P450 reversible inhibition, 2D6; assay type: in vitro ADME; conditions: probe fluorogenic probe (not named); human liver microsomes or recombinant P450 microsomes; fluorescent probe
T3 construct: host or cells: human liver microsomes or recombinant P450 microsomes
T3 sequence (P10635 whole entry): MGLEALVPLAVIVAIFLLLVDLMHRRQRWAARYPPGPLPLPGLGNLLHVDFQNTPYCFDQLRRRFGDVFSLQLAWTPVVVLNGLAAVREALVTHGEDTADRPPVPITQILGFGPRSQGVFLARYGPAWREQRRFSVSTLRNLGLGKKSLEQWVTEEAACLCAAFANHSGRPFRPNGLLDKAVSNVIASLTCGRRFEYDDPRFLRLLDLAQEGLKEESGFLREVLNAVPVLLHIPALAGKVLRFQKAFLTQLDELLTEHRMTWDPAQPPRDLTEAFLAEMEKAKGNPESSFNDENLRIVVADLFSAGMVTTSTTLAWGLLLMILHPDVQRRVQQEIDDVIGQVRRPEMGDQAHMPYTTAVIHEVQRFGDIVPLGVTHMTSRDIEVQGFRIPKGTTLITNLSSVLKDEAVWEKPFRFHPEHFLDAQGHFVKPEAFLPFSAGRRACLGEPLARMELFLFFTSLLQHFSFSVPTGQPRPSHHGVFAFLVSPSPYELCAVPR
Method: as §3

[7] = Rat 7 day oral dose limiting toxicity assessment; assay type: in vivo; conditions: for mortality: 750 mpk dose group, n=5 per group; for NO Effect Level (NOEL): in vivo, po, 7 days; for Dose limiting toxicity assessment, 25 mpk: p.o. 25 mg per kg per day for 7 days; for Dose limiting toxicity assessment, 25 mpk / Dose limiting toxicity assessment, 100 mpk / Dose limiting toxicity assessment, 750 mpk: mono-L-malic acid salts; for Dose limiting toxicity assessment, 100 mpk: p.o. 100 mg per kg per day for 7 days; for Dose limiting toxicity assessment, 750 mpk: p.o. 750 mg per kg per day for 7 days; for physical signs of toxicity: p.o. 100 mpk dose for 7 days
Method: The observations summarized in Table 8 indicate that both Example 1 and Compound #290 have the same NO Effect Level in a Dose Limiting Toxicity assay in the rat (NOEL=100 mpk/day for 7 days for both) (Note 11), and would argue against the use of higher doses of Compound #290 to achieve the same plasma exposure as Example 1 in the clinic.
Example 1 and Compound #290 as their mono-L-malic acid salts were formulated in 0.5% Methocel and dosed p.o. at 25, 100 and 750 mg per k per day (free base equivalent) for 7 days (n=5 animals in each group). During the dosing period observation of any physical signs of toxicity were noted. Upon termination on day 8, a standard battery of blood chemistry and tissue analyses were performed and evaluated for significant effects compared to vehicle controls. […] At the 750 mpk dose level several adverse effects were observed including mortality (⅖ for Example 1 on Day 7 and 8 in the 750 mpk dose group; ⅕ on day 4 for Compound #290 in the 750 mpk dose group).

[8] = target: CYP3A4 (Homo sapiens, UniProt P08684); assay: CYP-P450 reversible inhibition, 3A4; assay type: in vitro ADME; set-up: host or cells: human liver microsomes or recombinant P450 microsomes; conditions: probe fluorogenic probe (not named); human liver microsomes or recombinant P450 microsomes; fluorescent probe
Sequence of CYP3A4 (P08684 whole entry): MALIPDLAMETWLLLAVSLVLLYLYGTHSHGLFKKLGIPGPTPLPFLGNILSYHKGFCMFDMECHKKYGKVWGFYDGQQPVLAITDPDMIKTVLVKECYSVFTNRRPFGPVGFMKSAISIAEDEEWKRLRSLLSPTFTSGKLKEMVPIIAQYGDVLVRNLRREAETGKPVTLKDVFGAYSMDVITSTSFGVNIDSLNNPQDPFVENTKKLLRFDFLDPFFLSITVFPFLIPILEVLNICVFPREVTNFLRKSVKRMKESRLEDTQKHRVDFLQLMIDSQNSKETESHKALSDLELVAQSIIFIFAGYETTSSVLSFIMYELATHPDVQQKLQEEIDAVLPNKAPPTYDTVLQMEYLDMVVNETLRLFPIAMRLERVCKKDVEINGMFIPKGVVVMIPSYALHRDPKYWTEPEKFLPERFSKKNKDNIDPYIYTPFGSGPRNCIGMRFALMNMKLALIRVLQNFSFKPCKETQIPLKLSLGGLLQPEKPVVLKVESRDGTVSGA
Method: as §3

SMILES	kinact/KI [1] [M⁻¹ s⁻¹]	% Left @ 30 min [2] [%]	% Left @ 60 min [2] [%]	% Left @ 30 min [3] [%]	% Left @ 60 min [3] [%]	% Left @ 30 min [4] [%]	% Left @ 60 min [4] [%]	IC50 [5] [µM]	IC50 [6] [µM]	mortality [7]	NO Effect Level (NOEL) [7] [mpk/day]	Dose limiting toxicity assessment, 25 mpk ([7]; 25 mg/kg)	Dose limiting toxicity assessment, 25 mpk ([7]; listed as xample 1, 25 mg/kg)	Dose limiting toxicity assessment, 100 mpk ([7]; 100 mg/kg)	Dose limiting toxicity assessment, 100 mpk ([7]; listed as xample 1, 100 mg/kg)	Dose limiting toxicity assessment, 750 mpk [7]	physical signs of toxicity [7]	IC50 [8] [µM]
CCC[C@@H](NC(=O)N1C(=O)C(CC)(CC)[C@@H]1Oc1ccc(C(=O)N(CC)CCN(C)C)cc1)c1ccc(OC(F)(F)F)cc1 [Example 1, 2-(S)-[4-(((2-(Dimethylamino)ethyl)ethylamino)carbonyl)phenoxy]-3,3-diethyl-N-[1-(R)-(4-(trifluoromethoxy)phenyl)butyl]-4-oxo-1-azetidinecarboxamide]	809000	92	92	93	86	91	77	> 8	> 8	⅖	100	no adverse effects	No effects	no adverse effects	No effects	Significant toxicity observed	salivation	> 8
CCC[C@@H](NC(=O)N1C(=O)C(CC)(CC)[C@@H]1Oc1ccc(C(=O)N(C)CCN(C)C)cc1)c1ccc(OC)cc1 [Compound #290, reference compound]	–	93	88	100	102	90	67	> 8	> 8	⅕	100	no adverse effects	–	no adverse effects	–	Significant toxicity observed	salivation	> 8
CCC[C@@H](NC(=O)N1C(=O)C(CC)(CC)[C@@H]1Oc1ccc(C(=O)N(CC)CCN(C)C)cc1)c1ccc(C(F)(F)F)cc1 [Example 3, 2-(S)-[4-(((2-(Dimethylamino)ethyl)ethylamino)carbonyl)phenoxy]-3,3-diethyl-N-[1-(R)-(4-(trifluoromethyl)phenyl)butyl]-4-oxo-1-azetidinecarboxamide]	952000	–	–	–	–	–	–	–	–	–	–	–	–	–	–	–	–	–
